The record followed here is ChEMBL document CHEMBL3507680, “University of Dundee, Gates Library screen for HepG2 cell viability”.

A short description of this series: Human HepG2 cell viability assay in 384 well format. Format: toxicity, cell-based. Also on record: dose 125 nL, time 70.5 hour; cytotoxicity at 70.5 h: concentration not given beside the values. The following applies: HepG2 cells, read-out: Inhibition.

Turning to `O=C(C1CCN(c2cccnn2)C1)N1CCOCC1` (stereo not drawn), the cytotoxicity at 70.5 h worked out at 1.06%. `CNC(=O)c1cn[nH]c1C1(C)CCCN(Cc2ccccc2OC)C1` (stereo not drawn): the cytotoxicity at 70.5 h turned out to be 3.23%. Take `CCCc1ncc(CNC2(c3ccc(Cl)cc3)CCC2)cn1`: the cytotoxicity at 70.5 h was -4.55%. In the case of `CC(C)c1ncc(CNC2(c3ccc(Cl)cc3)CC2)cn1` it was -1.4%. As to `COCCc1ncc(CNC2(c3ccc(Cl)cc3)CC2)cn1`, the cytotoxicity at 70.5 h was determined as 0.0528%. The result for `c1ccc(-c2cc(CNCCN3CCCC3)c3nnnn3c2)cc1` reads -3.47%; that for `COc1ccc(CC(=O)N2CCCC2c2nc(C)c(C)c(O)n2)cc1` (stereo not drawn), -2.14%. For `Cc1nc(C2CCCN2C(=O)Cc2cccc(F)c2)nc(O)c1C` (stereo not drawn), the cytotoxicity at 70.5 h came out at 21.4%. The result for `O=C(c1ccc(F)cc1)N(CCCO)S(=O)(=O)c1cccs1` reads -16.3%. In the case of `Cc1ccc(N2CCC(NC(C)c3ccc(C)o3)CC2)nc1` (stereo not drawn) it was -4.68%; in that of `Cn1cc(C2CCCN2C(=O)CCCc2nc3ccccc3[nH]2)cn1` (stereo not drawn), 4.56%. `O=C(COCC1CC1)N1CCCC1c1nc(-c2ccccc2F)c[nH]1` (stereo not drawn): the cytotoxicity at 70.5 h worked out at 2.15%. Consider `Cc1noc(CNc2ccc(CC(=O)N3CCSCC3)cc2)n1`, for which the cytotoxicity at 70.5 h was -5.52%. The result for `CCc1noc(CNc2ccc(CC(=O)N3CCSCC3)cc2)n1` reads -6.52%. With `Cn1c(CS(=O)(=O)Cc2ccc(Cl)cc2)cc(=O)n(C)c1=O`, the cytotoxicity at 70.5 h is -6.35%. The result for `Cn1c(CS(=O)(=O)c2ccc(Cl)cc2)cc(=O)n(C)c1=O` reads -4.14%; that for `COc1ccc(C(NC(=O)NCc2nnc3n2CCC3)C2CC2)cc1` (stereo not drawn), 14.3%. Turning to `CN(C)C(=O)c1cccc(NC(=O)c2cnn(C)c2)c1`, the cytotoxicity at 70.5 h is -4.77%. Take `Cc1ccccc1CC(=O)NCCNc1nccc(C(F)(F)F)n1`: the cytotoxicity at 70.5 h is -8.29%. In the case of `COc1cccc(C(CO)NC(=O)NC(C)C)c1` (stereo not drawn) it was 11.8%; in that of `CC(Cc1c(F)cccc1F)NC(=O)NCc1ncnn1C` (stereo not drawn), -2.54%; in that of `CC(CCc1cccc(F)c1)NC(=O)NCc1ncnn1C` (stereo not drawn), -5.76%. The result for `CC(=O)N1CCCC(c2nc(-c3ccccc3)c[nH]2)C1` (stereo not drawn) reads -3.53%. The result for `CC(C)(C)Oc1ccncc1NCc1cscn1` reads -3.05%. As to `COc1cccc(C(CO)NC(=O)Cc2ccc(F)c(Br)c2)c1` (stereo not drawn), the cytotoxicity at 70.5 h was -3.64%. The result for `CN(C)C(=O)c1cccc(Nc2cnn(C)c2)c1` reads -3.59%; that for `CNC(=O)c1cccc(Nc2cnn(C)c2)c1`, -1.28%; that for `CCOCCCC(=O)N1CCCC1c1nc(-c2ccccc2F)c[nH]1` (stereo not drawn), -2.77%. For `Cn1cc(Nc2cccc(C(=O)N(CC(N)=O)C3CCCC3)c2)cn1`, the cytotoxicity at 70.5 h was -3.71%.

In the case of `CC(NCCCn1ccnc1)c1ccc(N2CCOC2=O)cc1` (stereo not drawn), the cytotoxicity at 70.5 h worked out at 16.7%. Take `Cc1ccccc1C(C)NC(=O)CN1CCN(Cc2cccs2)CC1` (stereo not drawn): the cytotoxicity at 70.5 h stood at 0.186%. The result for `O=C(CCC1CCCCC1)NCc1nnc2ccccn12` reads -1.08%; that for `CN(C)Cc1ccccc1NC(=O)c1ccc(C#N)cc1`, -7.54%. Turning to `CN(Cc1nnc2ccccn12)C(=O)CCNC(=O)C(C)(C)C`, the cytotoxicity at 70.5 h was 17.1%. The result for `CN(c1ncccc1C#N)C1CCN(Cc2ccncc2)CC1` reads -3.31%; that for `Cc1nc(-c2ccccc2)sc1C(=O)N(C1CC1)C1CC(=O)NC1=O` (stereo not drawn), -8.02%; that for `Cc1cnc(NS(=O)(=O)c2cccc(C#N)c2)s1`, 20.1%. On to `Cc1cccc(NC(=O)CCC(=O)NCC(=O)c2ccccc2F)c1`, for which the cytotoxicity at 70.5 h was 2.08%. `CC(C)(C)n1cc(CNC2CCN(C(=O)c3ccncc3)CC2)cn1`: the cytotoxicity at 70.5 h is -1.24%. The result for `O=C(CCC(=O)Nc1ccccc1)NCC(=O)c1ccc(F)cc1F` reads 5.75%; that for `O=C1CC(N(C(=O)c2csc(-c3ccccc3)n2)C2CC2)C(=O)N1` (stereo not drawn), 10.8%; that for `CN(Cc1nnc2ccccn12)C(=O)CCC1CCCC1`, -8.63%. The result for `CN(c1ncccc1C#N)C1CCN(CCc2ccncc2)CC1` reads -1.68%; that for `Cc1nc2n(n1)CC(NCc1nc(-c3cccs3)no1)CC2` (stereo not drawn), 0.591%; that for `CC(C)(C)OC(=O)N1CCC(NCc2cnn(C(C)(C)C)c2)CC1`, -2.5%.

As to `Cc1nc2cc(=O)[nH]n2c(C)c1CNC(=O)C(C)Cc1ccccc1` (stereo not drawn), the cytotoxicity at 70.5 h came out at 3.77%.

Turning to `Cc1ccc(CC(=O)NCC(O)c2cc(Cl)cc(Cl)c2)cn1` (stereo not drawn), the cytotoxicity at 70.5 h was -3.94%. `CCc1nnc(SC2CCN(c3ccccc3F)C2=O)n1C` (stereo not drawn): the cytotoxicity at 70.5 h is -2.9%. In the case of `COC(C(=O)NCc1c(C)nc2cc(=O)[nH]n2c1C)c1ccccc1` (stereo not drawn) it was -3.2%; in that of `Cn1c(N)nnc1SC1CCCN(c2ccccc2F)C1=O` (stereo not drawn), -1.56%.

Turning to `CCOc1ccc(NC(=O)c2[nH]c(C)cc2C)cc1CO`, the cytotoxicity at 70.5 h worked out at 20.6%. With `CCOc1ccc(NC(=O)c2ccc(C#N)cc2C)cc1CO`, the cytotoxicity at 70.5 h is -1.73%. Take `Cn1c(CO)cnc1SC1CCCN(c2ccccc2F)C1=O` (stereo not drawn): the cytotoxicity at 70.5 h amounted to 6.04%. For `CC(C)(C)n1cc(CNC2CCN(C(=O)c3ccco3)CC2)cn1`, the cytotoxicity at 70.5 h is 1.29%. Turning to `CC(NCCCn1cccn1)c1ccc(N2CCCS2(=O)=O)cc1` (stereo not drawn), the cytotoxicity at 70.5 h was -4.88%. The result for `CCOc1ccc(NC(=O)Cc2cc(C)[nH]n2)cc1CO` reads -7.67%; that for `COC(=O)c1cccc(C(=O)N(C)Cc2ccsc2)c1`, 22.5%. Take `CCN1CCOC(CNCc2cnc(N(CC)CC)s2)C1` (stereo not drawn): the cytotoxicity at 70.5 h is 5.52%. Consider `Cc1ccc(S(N)(=O)=O)cc1C(=O)NC1CCCC1`, for which the cytotoxicity at 70.5 h is -1.13%. For the compound `Cc1ncc(C(=O)NCCNc2ccncc2)s1`, the cytotoxicity at 70.5 h is -3.98%. As to `CCc1ncc(C(=O)NCCNc2ccncc2)s1`, the cytotoxicity at 70.5 h is -0.807%.

On to `COC(=O)N1CCC(NC(=O)c2cc(S(N)(=O)=O)ccc2C)CC1`, for which the cytotoxicity at 70.5 h is 2.43%. The result for `Cc1cc(N(C)C)nc(N2CCCC2c2ccccn2)n1` (stereo not drawn) reads -3.12%; that for `CC(=O)N1CCC(NC(=O)c2cc(S(N)(=O)=O)ccc2C)CC1`, -3.13%. On to `O=C(CC1CCCO1)NS(=O)(=O)Cc1cc(-c2ccccc2)no1` (stereo not drawn), for which the cytotoxicity at 70.5 h was 20.6%. On to `COc1cccc(CN(C)CCCn2cnc3c(N)ncnc32)c1`, for which the cytotoxicity at 70.5 h is -9.38%. The result for `CN(CCCn1cnc2c(N)ncnc21)Cc1ccccc1` reads -4.43%; that for `COC(=O)Nc1cccc(C(=O)N(C)Cc2cccc(O)c2)c1`, -6.41%. On to `Cc1noc(C)c1CSCc1csc(CS(C)(=O)=O)n1`, for which the cytotoxicity at 70.5 h amounted to 0.624%. Take `COc1ccc(OCCN(C)CCCn2cnc3c(N)ncnc32)cc1`: the cytotoxicity at 70.5 h was -5.85%. The result for `CCOc1cccc(COC(=O)c2cc(C)on2)n1` reads 1.07%. In the case of `CNC(=O)COc1c(F)cc(Br)cc1C(C)=O` it was -5.63%; in that of `O=C(C1SCCc2ccccc21)N1CCC(O)CC1` (stereo not drawn), -7.52%; in that of `CN(CC(=O)NS(=O)(=O)c1ccc(F)cc1)Cc1ccccc1`, -3.97%. Turning to `Cc1n[nH]c(C)c1CCC(=O)NC1CCCN(c2ccccc2F)C1` (stereo not drawn), the cytotoxicity at 70.5 h is 6.82%.

Consider `Cc1noc(C)c1CN(C)Cc1csc(-c2ccc(F)cc2)n1`, for which the cytotoxicity at 70.5 h is -8.1%. In the case of `CCOc1ccc(C(=O)NCc2ccnc(N3CCN(C)CC3)c2)cn1` it was -7.61%; in that of `COCc1cc(N(C)Cc2ccccn2)nc(C(C)(C)C)n1`, -10.1%; in that of `N#Cc1ccc(NCCS(=O)(=O)N2CCc3ccccc32)nc1`, 13%. With `CNS(=O)(=O)c1ccc(CNC(=O)N2CCOC(C)C2)cc1` (stereo not drawn), the cytotoxicity at 70.5 h is 10.2%. In the case of `Cc1cc(C)n(CC(C)CNC(=O)NCc2csc(C)n2)n1` (stereo not drawn), the cytotoxicity at 70.5 h worked out at 42.1%. On to `O=C(CCSc1ccccc1F)NCc1cccnc1`, for which the cytotoxicity at 70.5 h is -8.87%. The result for `N#Cc1ccc(CNCCS(=O)(=O)N2CCc3ccccc32)cc1` reads -10.2%; that for `N#Cc1cccc(S(=O)(=O)NC(=O)c2csc(-c3ccco3)n2)c1`, 16.6%; that for `CS(=O)(=O)CCNC(=O)c1cc2ccccc2nc1N1CCCC1`, -7.07%. `COc1ccc2c(c1)NC(=O)C2OC(=O)CCc1ccc(F)cc1` (stereo not drawn): the cytotoxicity at 70.5 h stood at 2.64%. The result for `O=S(=O)(CC1CCCCO1)Nc1cnn(Cc2ccccc2)c1` (stereo not drawn) reads -7.62%; that for `NS(=O)(=O)CCNC(=O)c1cc2ccccc2nc1N1CCCC1`, -5.72%. In the case of `O=C(NCC(=O)N1CCCC1Cc1cccc(F)c1)c1ccccn1` (stereo not drawn) it was -9.78%. The result for `O=C(NCCSc1ccccc1F)NCc1cccnc1` reads -6.59%; that for `CCOC(=O)NCCNC(=O)c1cc2ccccc2nc1N1CCCC1`, 2.35%. Take `O=C(CCc1ccsc1)Nc1ccnn1C1CCS(=O)(=O)C1` (stereo not drawn): the cytotoxicity at 70.5 h is 16.5%. Take `O=C(NCCCSc1ccc(F)cc1)C1CCc2cn[nH]c2C1` (stereo not drawn): the cytotoxicity at 70.5 h is -4.46%. The result for `CCCn1nc2c(cc1=O)CN(c1ncnc3sccc13)CC2` reads -10.8%; that for `Cc1nc(CNC(=O)N2CCN(c3ccc(Cl)cn3)CC2)no1`, 3.34%; that for `CCc1[nH]nc(NC(=O)c2cc[nH]n2)c1C`, 6.09%. The result for `CCc1[nH]nc(NC(=O)c2ccc(Cl)cn2)c1C` reads 7.84%; that for `O=C(Cc1ccon1)N1CCN(c2ccc(F)cc2Cl)CC1`, -6.01%. In the case of `CNC(=O)NCC(=O)N1CCCC1Cc1cccc(F)c1` (stereo not drawn) it was 2.87%; in that of `CCc1nc(CCNc2ncccn2)sc1C`, -7.68%; in that of `CC(C)OCCCN(Cc1ccncc1)Cc1cc(F)ccc1F`, -4.35%. For `CCOc1ccc2ccccc2c1CNCC1CCS(=O)(=O)C1` (stereo not drawn), the cytotoxicity at 70.5 h was -3.67%. The result for `COc1ccccc1NCc1cscn1` reads -1.66%.
